Data from article PMC8225045, “Chemical Synthesis and Structure-Activity Relationship Study Yield Desotamide a Analogues with Improved Antibacterial Activity” (Marine Drugs, 2021).
Values after ≈ are worked out from the molar mass of the structure shown. Where two headings read alike, the source gives them in different places. Non-standard residues stand in square brackets, D forms with d. Residues, ends and D or L forms follow the SMILES beside them. aIle = CC[C@@H](C)[C@H](N)C(=O)O; dOrn = NCCC[C@@H](N)C(=O)O

Legend:
[1] = test system: Gram-positive pathogens; details: for Gram positive antibacterial activity for desotamides (in words) / Gram positive antibacterial activity for wollamides (in words): summary; for Gram positive antibacterial activity for desotamides (in words): Figure 2; for Gram positive antibacterial activity for wollamides (in words): Figure 3; for fold increase of antibacterial activities compared to desotamide A (1): entire test panel of Gram-positive bacteria
Description: (§1) All the synthesized cyclopeptides (7–19) and the desotamide A (1) isolated from S. scopuliridis SCSIO ZJ46 were evaluated for antibacterial activities against a series of Gram-positive pathogens including […] Staphylococcus aureus ATCC29213, Bacillus subtilis BS01, Micrococcus luteus ML01, Enterococcus faecalis ATCC29212; 3 drug-resistant poultry pathogens Staphylococcus simulans LJH13, Enterococcus gallinarum LJH11, Staphylococcus haemolyticus LJH9; 4 clinical methicillin-resistant Staphylococcus aureus (MRSA) shhs-E1, MRSA 16339, MRSA 745524, MRSA 16162. Their antibacterial activities against the […] pathogens Escherichia coli ATCC 13,124 and clinical drug-resistant Klebsiella pneumonia 15580 were also assayed.
(§2) Ampicillin, vancomycin and polymyxin were used as control. The maximum test concentrations for all the compounds were 128 μg/mL.

[2] = test system: E. coli ATCC 13124
Description: as §1, §2

[3] = test system: Klebsiella pneumoniae 15580
Description: as §1, §2

[4] = test system: methicillin-resistant Staphylococcus aureus (MRSA) shhsE1; assay: microbe, parasite or virus in culture
Description: as §1, §2

[5] = test system: MRSA 16339; assay: microbe, parasite or virus in culture
Description: as §1, §2

[6] = test system: Staphylococcus haemolyticus LJH9; assay: microbe, parasite or virus in culture
Description: as §1, §2

[7] = test system: Enterococcus faecalis ATCC 29212; assay: microbe, parasite or virus in culture
Description: as §1, §2

[8] = test system: Bacillus subtilis BS01; assay: microbe, parasite or virus in culture
Description: as §1, §2

[9] = test system: Staphylococcus simulans LJH13; assay: microbe, parasite or virus in culture
Description: as §1, §2

[10] = test system: MRSA 16162; assay: microbe, parasite or virus in culture
Description: as §1, §2

[11] = test system: MRSA 745524; assay: microbe, parasite or virus in culture
Description: as §1, §2

[12] = test system: Enterococcus gallinarum LJH11; assay: microbe, parasite or virus in culture
Description: as §1, §2

[13] = test system: Staphylococcus aureus ATCC 29213; assay: microbe, parasite or virus in culture
Description: as §1, §2

[14] = test system: Micrococcus luteus ML01; assay: microbe, parasite or virus in culture
Description: as §1, §2

[15] = test system: Gram-negative pathogens; details: weak activity; summary of Table 1
Description: as §1, §2

[16] = no notable antibacterial activities; cited from earlier work
Description: Comparison of the naturally produced desotamides, a preliminary SAR of this class of compounds has been defined.

[17] = test system: Staphylococcus aureus; set-up: method as in PMID 25229313; details: previous report; cited from earlier work
[18] = E. coli ATCC 13124, two-fold serial dilution, Mueller-Hinton broth, 96-well plate, CLSI-based, maximum test concentration 128 μg/mL
[19] = clinical drug-resistant Klebsiella pneumoniae 15580, two-fold serial dilution, Mueller-Hinton broth, 96-well plate, CLSI-based, maximum test concentration 128 μg/mL
[20] = clinical MRSA shhsE1, two-fold serial dilution, Mueller-Hinton broth, 96-well plate, CLSI-based, maximum test concentration 128 μg/mL
[21] = clinical MRSA 16339, two-fold serial dilution, Mueller-Hinton broth, 96-well plate, CLSI-based, maximum test concentration 128 μg/mL
[22] = Staphylococcus haemolyticus LJH9, drug-resistant poultry pathogen, two-fold serial dilution, Mueller-Hinton broth, 96-well plate, CLSI-based, maximum test concentration 128 μg/mL
[23] = Enterococcus faecalis ATCC 29212, two-fold serial dilution, Mueller-Hinton broth, 96-well plate, CLSI-based, maximum test concentration 128 μg/mL
[24] = Bacillus subtilis BS01, two-fold serial dilution, Mueller-Hinton broth, 96-well plate, CLSI-based, maximum test concentration 128 μg/mL
[25] = Staphylococcus simulans LJH13, drug-resistant poultry pathogen, two-fold serial dilution, Mueller-Hinton broth, 96-well plate, CLSI-based, maximum test concentration 128 μg/mL
[26] = clinical MRSA 16162, two-fold serial dilution, Mueller-Hinton broth, 96-well plate, CLSI-based, maximum test concentration 128 μg/mL
[27] = clinical MRSA 745524, two-fold serial dilution, Mueller-Hinton broth, 96-well plate, CLSI-based, maximum test concentration 128 μg/mL
[28] = Enterococcus gallinarum LJH11, drug-resistant poultry pathogen, two-fold serial dilution, Mueller-Hinton broth, 96-well plate, CLSI-based, maximum test concentration 128 μg/mL
[29] = Staphylococcus aureus ATCC 29213, two-fold serial dilution, Mueller-Hinton broth, 96-well plate, CLSI-based, maximum test concentration 128 μg/mL
[30] = Micrococcus luteus ML01, two-fold serial dilution, Mueller-Hinton broth, 96-well plate, CLSI-based, maximum test concentration 128 μg/mL

Compound	Gram positive antibacterial activity for desotamides (in words) [1]	MIC [3]; 15580	MIC ([4]; methicillin-resistant shhsE1)	MIC [5]; 16339	MIC [6]	MIC ([7]; ATCC 29212)	MIC ([8]; BS01)	MIC [9]	MIC [10]; 16162	MIC [11]; 745524	MIC [12]	MIC ([13]; ATCC 29213)	MIC ([14]; ML01)	MIC [2, 18]	MIC [3, 19]	MIC [4, 20]	MIC [5, 21]	MIC [6, 22]	MIC [7, 23]	MIC [8, 24]	further results
CC[C@@H](C)[C@@H]1NC(=O)[C@@H](CC(C)C)NC(=O)[C@H](CC(C)C)NC(=O)[C@H](Cc2c[nH]c3ccccc23)NC(=O)CNC(=O)[C@H](CC(N)=O)NC1=O [Compound 1, desotamide A] (cyclo(GWL[dL][aIle]N))	Moderately active	>128 µg/mL	64 µg/mL (≈ 91.8 µM)	16 µg/mL (≈ 23 µM)	128 µg/mL (≈ 184 µM)	64 µg/mL (≈ 91.8 µM)	32 µg/mL (≈ 45.9 µM)	16 µg/mL (≈ 23 µM)	32 µg/mL (≈ 45.9 µM)	8 µg/mL (≈ 11.5 µM)	64 µg/mL (≈ 91.8 µM)	32 µg/mL (≈ 45.9 µM)	32 µg/mL (≈ 45.9 µM)	–	–	–	–	–	–	–	MIC ([2]; ATCC 13124): >128 µg/mL
CC(C)C[C@@H]1NC(=O)[C@H](Cc2c[nH]c3ccccc23)NC(=O)[C@@H](CCCN)NC(=O)[C@H](CC(N)=O)NC(=O)[C@H](C(C)C)NC(=O)[C@@H](CC(C)C)NC1=O [Compound 7, Wollamide B] (cyclo([dOrn]WL[dL]VN))	–	–	–	–	–	–	–	–	–	–	–	–	–	128 µg/mL (≈ 173 µM)	>128 µg/mL	32 µg/mL (≈ 43.2 µM)	64 µg/mL (≈ 86.5 µM)	64 µg/mL (≈ 86.5 µM)	128 µg/mL (≈ 173 µM)	32 µg/mL (≈ 43.2 µM)	Gram positive antibacterial activity for wollamides (in words) [1]: Moderately active; MIC [9, 25]: 16 µg/mL (≈ 21.6 µM); MIC [10, 26]: 64 µg/mL (≈ 86.5 µM); MIC [11, 27]: 32 µg/mL (≈ 43.2 µM); MIC [12, 28]: >128 µg/mL; MIC [13, 29]: 32 µg/mL (≈ 43.2 µM); MIC [14, 30]: 16 µg/mL (≈ 21.6 µM)
CC(C)C[C@@H]1NC(=O)[C@H](Cc2c[nH]c3ccccc23)NC(=O)[C@@H](CCCNC(=N)N)NC(=O)[C@H](CC(N)=O)NC(=O)[C@H](C(C)C)NC(=O)[C@@H](CC(C)C)NC1=O [Compound 8, Wollamide B1] (cyclo([dR]WL[dL]VN))	–	>128 µg/mL	–	16 µg/mL (≈ 20.5 µM)	32 µg/mL (≈ 40.9 µM)	32 µg/mL (≈ 40.9 µM)	8 µg/mL (≈ 10.2 µM)	8 µg/mL (≈ 10.2 µM)	16 µg/mL (≈ 20.5 µM)	16 µg/mL (≈ 20.5 µM)	64 µg/mL (≈ 81.8 µM)	16 µg/mL (≈ 20.5 µM)	8 µg/mL (≈ 10.2 µM)	128 µg/mL (≈ 164 µM)	–	16 µg/mL (≈ 20.5 µM)	–	–	–	–	fold increase of anti-Gram-positive activity compared to wollamide B (7) ([1]; Gram-positive bacteria): 2–4 folds; Gram positive antibacterial activity for wollamides (in words) [1]: 2–4-Fold more active than 7
CC[C@H](C)[C@@H]1NC(=O)[C@H](CC(N)=O)NC(=O)[C@@H](CCCCN)NC(=O)[C@H](Cc2c[nH]c3ccccc23)NC(=O)[C@H](CC(C)C)NC(=O)[C@@H](CC(C)C)NC1=O [Compound 13, Desotamide A4] (cyclo(I[dL]LW[dK]N))	2–4-Fold more active than 1	>128 µg/mL	16 µg/mL (≈ 20.8 µM)	16 µg/mL (≈ 20.8 µM)	32 µg/mL (≈ 41.7 µM)	32 µg/mL (≈ 41.7 µM)	8 µg/mL (≈ 10.4 µM)	8 µg/mL (≈ 10.4 µM)	16 µg/mL (≈ 20.8 µM)	16 µg/mL (≈ 20.8 µM)	64 µg/mL (≈ 83.3 µM)	16 µg/mL (≈ 20.8 µM)	8 µg/mL (≈ 10.4 µM)	–	–	–	–	–	–	–	MIC values against Gram-positive pathogens (summary over the panel) [1]: 8 to 32 µg/mL; fold increase of antibacterial activities compared to desotamide A (1) [1]: 2–4 fold; MIC ([2]; ATCC 13124): 64 µg/mL (≈ 83.3 µM); MIC against the Gram-negative pathogens tested (summary) [15]: 64 to 128 µg/mL
CC[C@H](C)[C@@H]1NC(=O)[C@H](CC(N)=O)NC(=O)[C@@H](CCCNC(=N)N)NC(=O)[C@H](Cc2c[nH]c3ccccc23)NC(=O)[C@H](CC(C)C)NC(=O)[C@@H](CC(C)C)NC1=O [Compound 15, Desotamide A6] (cyclo(I[dL]LW[dR]N))	2–4-Fold more active than 1	>128 µg/mL	8 µg/mL (≈ 10.1 µM)	16 µg/mL (≈ 20.1 µM)	32 µg/mL (≈ 40.2 µM)	32 µg/mL (≈ 40.2 µM)	8 µg/mL (≈ 10.1 µM)	8 µg/mL (≈ 10.1 µM)	16 µg/mL (≈ 20.1 µM)	8 µg/mL (≈ 10.1 µM)	128 µg/mL (≈ 161 µM)	16 µg/mL (≈ 20.1 µM)	8 µg/mL (≈ 10.1 µM)	–	–	–	–	–	–	–	MIC values against Gram-positive pathogens (summary over the panel) [1]: 8 to 32 µg/mL; fold increase of antibacterial activities compared to desotamide A (1) [1]: 2–4 fold; MIC against the Gram-negative pathogens tested (summary) [15]: 64 to 128 µg/mL
cyclo(Asn-Ile-D-Leu-Leu-Trp-D-Arg) (head to tail) [Compound 19, Desotamide A0]	Slightly less active than 1	–	–	–	–	–	–	–	–	–	–	–	–	–	>128 µg/mL	64 µg/mL	128 µg/mL	64 µg/mL	128 µg/mL	32 µg/mL	MIC [9, 25]: 32 µg/mL; MIC [10, 26]: 64 µg/mL; MIC [11, 27]: 64 µg/mL; MIC [12, 28]: >128 µg/mL; MIC [13, 29]: 64 µg/mL; MIC [14, 30]: 32 µg/mL
cyclo(Asn-Ile-D-Leu-Leu-Trp-D-His) (head to tail) [Compound 18, Desotamide A9]	Inactive	–	–	–	–	–	–	–	–	–	–	–	–	–	>128 µg/mL	>128 µg/mL	>128 µg/mL	>128 µg/mL	>128 µg/mL	>128 µg/mL	MIC values against Gram-positive pathogens (summary over the panel) ([1]; series of Gram-positive pathogens including MRSA, summary of Table 1): > 128 µg/mL; MIC [9, 25]: >128 µg/mL; MIC [10, 26]: >128 µg/mL; MIC [11, 27]: >128 µg/mL; MIC [12, 28]: >128 µg/mL; MIC [13, 29]: >128 µg/mL; MIC [14, 30]: >128 µg/mL
desotamide G [Compound 5]	–	–	–	–	–	–	–	–	–	–	–	–	–	–	–	–	–	–	–	–	MIC, antibacterial activities [16]: > 113 µg/mL
polymyxin [reference compound]	–	–	–	–	–	–	–	–	–	–	–	–	–	16 µg/mL	2 µg/mL	–	–	–	–	–	–
wollamide A [Compound 6]	–	–	–	–	–	–	–	–	–	–	–	–	–	–	–	–	–	–	–	–	antibacterial activity against Staphylococcus aureus (in words) [17]: no antibacterial
